US9499550B2 (BRISTOL-MYERS SQUIBB COMPANY, priority 2012, dated 2016)
Read-outs that look alike come from different tables or passages of the source.

Assays:
[1] = test system: HCV genotype 1b (Con1) replicon in HUH-7 cells; experiment: HCV replicon luciferase reporter assay, genotype 1b; assay type: cell-based; details: Hepatitis C virus, Huh-7, 72 h, 3 days incubation, read-out: LE_1b (EC50, range)
Procedure, shortened: (§1)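 Replicon inhibition for both genotypes was measured as Renilla luciferase signal (EnduRen, 7.5 μM final, 2 h) after 3-day, 37° C exposure of replicon-bearing HUH-7 cells in 4% FCS DMEM, 0.5% DMSO. The 1b construct carries S1179I; the 1a H77 construct carries P1496L and S2204I. Twenty-point, 3-fold dilutions were fitted four-parametrically for EC50, and CC50 was taken from multiplexed Cell Titer-Blue.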

[2] = test system: HCV genotype 1a (H77 strain) replicon in HUH-7 cells; experiment: HCV replicon luciferase reporter assay, genotype 1a; assay type: cell-based; details: Hepatitis C virus, Huh-7, 72 h, 3 days incubation, read-out: LE_1a (EC50, range)
Procedure, shortened: as §1

[3] = HCV genotype 1b replicon luciferase
[4] = HCV genotype 1a replicon luciferase
[5] = HCV genotype 1b replicon luciferase assay, range class
[6] = HCV genotype 1a replicon luciferase assay, range class
[7] = GETYPE1B, HCV genotype 1b replicon luciferase
[8] = GETYPE1A, HCV genotype 1a replicon luciferase

Row | Compound | EC50 [1, 3] | EC50 [2, 4] | EC50 [1, 5] | EC50 [2, 6] | also measured
1 | C[C@@H]1CC/C=C\[C@@H]2C[C@@]2(C(=O)NS(=O)(=O)C2(C)CC2)NC(=O)[C@@H]2C[C@@H](Oc3nc4c(c5ccccc35)OCCC4)CN2C(=O)[C@@H](NC(=O)OC(C)(C)C)[C@H](C)C1 [Compound 6020, tert-butyl ((2R,6S,7R,9R,13aS,14aR,16aS,Z)-2-((3,4-dihydro-2H-pyrano[3,2-c]isoquinolin-6-yl)oxy)-7,9-dimethyl-14a-(((1-methylcyclopropyl)sulfonyl)carbamoyl)-5,16-dioxo-1,2,3,5,6,7,8,9,10,11,13a,14,14a,15,16,16a-hexadecahydrocyclopropa[e]pyrrolo[1,2-a][1,4]diazacyclopentadecin-6-yl)carbamate] | < 5.46 nM | < 5.46 nM | – | – | –
2 | COCCOc1cnc(O[C@@H]2C[C@H]3C(=O)N[C@]4(C(=O)NS(=O)(=O)C5CC5)C[C@H]4/C=C\CC[C@@H](C)C[C@@H](C)[C@H](NC(=O)OC(C)(C)C)C(=O)N3C2)c2ccccc12 [Compound 1033, tert-butyl ((2R,6S,7R,9R,13aS,14aR,16aS,Z)-14a-((cyclopropylsulfonyl)carbamoyl)-2-((4-(2-methoxyethoxyl)isoquinolin-1-yl)oxy)-7,9-dimethyl-5,16-dioxo-1,2,3,5,6,7,8,9,10,11,13a,14,14a,15,16,16a-hexadecahydrocyclopropa[e]pyrrolo[1,2-a][1,4]diazacyclopentadecin-6-yl)carbamate] | – | – | < 5.46 nM | < 5.46 nM | –
3 | CC[C@@H]1C[C@H](C)CC/C=C\[C@@H]2C[C@@]2(C(=O)NS(=O)(=O)C2(C)CC2)NC(=O)[C@@H]2C[C@@H](Oc3nnc(OC)c4ccccc34)CN2C(=O)[C@H]1NC(=O)OC(C)(C)C [Compound 5026, tert-butyl ((2R,6S,7R,9R,13aS,14aR,16aS,Z)-7-ethyl-2-((4-methoxyphthalazin-1-yl)oxy)-9-methyl-14a-(((1-methylcyclopropyl)sulfonyl)carbamoyl)-5,16-dioxo-1,2,3,5,6,7,8,9,10,11,13a,14,14a,15,16,16a-hexadecahydrocyclopropa[e]pyrrolo[1,2-a][1,4]diazacyclopentadecin-6-yl)carbamate] | < 5.46 nM | < 5.46 nM | – | – | –
4 | CCOc1nnc(O[C@@H]2C[C@H]3C(=O)N[C@]4(C(=O)NS(=O)(=O)C5(C)CC5)C[C@H]4/C=C\CC[C@H](C)C[C@@H](CC)[C@H](NC(=O)OC(C)(C)C)C(=O)N3C2)c2ccccc12 [Compound 5046, tert-butyl ((2R,6S,7R,9S,13aS,14aR,16aS,Z)-2-((4-ethoxyphthalazin-1-yl)oxy)-7-ethyl-9-methyl-14a-(((1-methylcyclopropyl)sulfonyl)carbamoyl)-5,16-dioxo-1,2,3,5,6,7,8,9,10,11,13a,14,14a,15,16,16a-hexadecahydrocyclopropa[e]pyrrolo[1,2-a][1,4]diazacyclopentadecin-6-yl)carbamate] | < 5.46 nM | 4.82 to 103 nM | – | – | –
5 | COCCOc1cnc(O[C@@H]2C[C@H]3C(=O)N[C@]4(C(=O)NS(=O)(=O)C5(C)CC5)C[C@H]4/C=C\CC[C@@H](C)C[C@@H](C)[C@H](NC(=O)OC(C)(C)C(C)(F)F)C(=O)N3C2)c2ccc(OC)cc12 [Compound 1149, 3,3-difluoro-2-methylbutan-2-yl((2R,6S,7R,9R,13aS,14aR,16aS,Z)-2-((6-methoxy-4-(2-methoxyethoxyl)isoquinolin-1-yl)oxy)-7,9-dimethyl-14a-(((1-methylcyclopropyl)sulfonyl)carbamoyl)-5,16-dioxo-1,2,3,5,6,7,8,9,10,11,13a,14,14a,15,16,16a-hexadecahydrocyclopropa[e]pyrrolo[1,2-a][1,4]diazacyclopentadecin-6-yl)carbamate] | – | – | < 5.46 nM | < 5.46 nM | –
6 | CC[C@@H]1C[C@@H](C)CC/C=C\[C@@H]2C[C@@]2(C(=O)NS(=O)(=O)C2(C)CC2)NC(=O)[C@@H]2C[C@@H](Oc3nc(OC)cc4cc(OC)ccc34)CN2C(=O)[C@H]1NC(=O)OC(C)(C)C(C)(F)F [Compound 1123, 3,3-difluoro-2-methylbutan-2-yl((2R,6S,7R,9S,13aS,14aR,16aS,Z)-2-((3,6-dimethoxyisoquinolin-1-yl)oxy)-7-ethyl-9-methyl-14a-(((1-methylcyclopropyl)sulfonyl)carbamoyl)-5,16-dioxo-1,2,3,5,6,7,8,9,10,11,13a,14,14a,15,16,16a-hexadecahydrocyclopropa[e]pyrrolo[1,2-a][1,4]diazacyclopentadecin-6-yl)carbamate] | – | – | < 5.46 nM | < 5.46 nM | –
7 | CC[C@@H]1C[C@@H](C)CC/C=C\[C@@H]2C[C@@]2(C(=O)NS(=O)(=O)C2(C)CC2)NC(=O)[C@@H]2C[C@@H](Oc3nccc4c(OC)cccc34)CN2C(=O)[C@H]1NC(=O)NC(C)(C)C [Compound 3033, (2R,6S,7R,9S,13aS,14aR,16aS,Z)-6-(3-(tert-butyl)ureido)-7-ethyl-2-((5-methoxyisoquinolin-1-yl)oxy)-9-methyl-N-((1-methylcyclopropyl)sulfonyl)-5,16-dioxo-1,2,3,5,6,7,8,9,10,11,13a,14,14a,15,16,16a-hexadecahydrocyclopropa[e]pyrrolo[1,2-a][1,4]diazacyclopentadecine-14a-carboxamide] | – | – | 4.82 to 103 nM | 4.82 to 103 nM | –
8 | COc1cnc(O[C@@H]2C[C@H]3C(=O)N[C@]4(C(=O)NS(=O)(=O)C5(CF)CC5)C[C@H]4/C=C\CC[C@@H](C)C[C@@H](C)[C@H](NC(=O)OC(C)(C)C)C(=O)N3C2)c2ccc(F)cc12 [Compound 3146, tert-butyl ((2R,6S,7R,9R,13aS,14aR,16aS,Z)-2-((6-fluoro-4-methoxyisoquinolin-1-yl)oxy)-14a-(((1-(fluoromethyl)cyclopropyl)sulfonyl)carbamoyl)-7,9-dimethyl-5,16-dioxo-1,2,3,5,6,7,8,9,10,11,13a,14,14a,15,16,16a-hexadecahydrocyclopropa[e]pyrrolo[1,2-a][1,4]diazacyclopentadecin-6-yl)carbamate] | – | – | < 5.46 nM | < 5.46 nM | –
9 | CCOc1ccc2ncc(O[C@@H]3C[C@H]4C(=O)N[C@]5(C(=O)NS(=O)(=O)C6(C)CC6)C[C@H]5/C=C\CC[C@@H](C)C[C@@H](CC)[C@H](NC(=O)OC(C)(C)C(F)(F)F)C(=O)N4C3)cc2c1 [Compound 4314] | – | – | – | – | EC50 [1, 7]: 1.01 to 5 nM; EC50 [2, 8]: 1.01 to 5 nM
10 | CCCOc1cc2c(Cl)cccc2c(O[C@@H]2C[C@H]3C(=O)N[C@]4(C(=O)NS(=O)(=O)C5(C)CC5)C[C@H]4/C=C\CC[C@H](C)C[C@@H](C)[C@H](NC(=O)OC(C)(C)C(F)(F)F)C(=O)N3C2)n1 [Compound 1077, 1,1,1-trifluoro-2-methylpropan-2-yl((2R,6S,7R,9S,13aS,14aR,16aS,Z)-2-((5-chloro-3-propoxyisoquinolin-1-yl)oxy)-7,9-dimethyl-14a-(((1-methylcyclopropyl)sulfonyl)carbamoyl)-5,16-dioxo-1,2,3,5,6,7,8,9,10,11,13a,14,14a,15,16,16a-hexadecahydrocyclopropa[e]pyrrolo[1,2-a][1,4]diazacyclopentadecin-6-yl)carbamate] | – | – | < 5.46 nM | 4.82 to 103 nM | –
11 | CC[C@@H]1C[C@@H](C)CC/C=C\[C@@H]2C[C@@]2(C(=O)NS(=O)(=O)C2CC2)NC(=O)[C@@H]2C[C@@H](Oc3nccc4cc(OC)c(F)cc34)CN2C(=O)[C@H]1NC(=O)OC(C)(C)C(C)(F)F [Compound 5472, 3,3-difluoro-2-methylbutan-2-yl((2R,6S,7R,9S,13aS,14aR,16aS,Z)-14a-((cyclopropylsulfonyl)carbamoyl)-7-ethyl-2-((7-fluoro-6-methoxyisoquinolin-1-yl)oxy)-9-methyl-5,16-dioxo-1,2,3,5,6,7,8,9,10,11,13a,14,14a,15,16,16a-hexadecahydrocyclopropa[e]pyrrolo[1,2-a][1,4]diazacyclopentadecin-6-yl)carbamate] | 1.01 to 5 nM | 1.01 to 5 nM | – | – | –
12 | COc1ccc2c(O[C@@H]3C[C@H]4C(=O)N[C@]5(C(=O)NS(=O)(=O)C6CC6)C[C@H]5/C=C\CC[C@H](C)C[C@@H](C)[C@H](NC(=O)OC(C)(C)C)C(=O)N4C3)nc(-c3ccc(OC(C)C)nc3)cc2c1 [Compound 5212, tert-butyl ((2R,6S,7R,9S,13aS,14aR,16aS,Z)-14a-((cyclopropylsulfonyl)carbamoyl)-2-((3-(6-isopropoxypyridin-3-yl)-6-methoxyisoquinolin-1-yl)oxy)-7,9-dimethyl-5,16-dioxo-1,2,3,5,6,7,8,9,10,11,13a,14,14a,15,16,16a-hexadecahydrocyclopropa[e]pyrrolo[1,2-a][1,4]diazacyclopentadecin-6-yl)carbamate] | < 5.46 nM | < 5.46 nM | – | – | –
13 | C=COc1cnc(O[C@@H]2C[C@H]3C(=O)N[C@]4(C(=O)NS(=O)(=O)C5(C)CC5)C[C@H]4/C=C\CC[C@@H](C)C[C@@H](C)[C@H](NC(=O)OC(C)(C)C(F)(F)F)C(=O)N3C2)c2ccc(OC)cc12 [Compound 4231] | – | – | – | – | EC50 [1, 7]: < 5.46 nM; EC50 [2, 8]: < 5.46 nM
14 | CC(C)Oc1cc2ccccc2c(O[C@@H]2C[C@H]3C(=O)N[C@]4(C(=O)NS(=O)(=O)C5(C)CC5)C[C@H]4/C=C\CC[C@H](C)C[C@@H](C)[C@H](NC(=O)OC(C)(C)C(C)(F)F)C(=O)N3C2)n1 [Compound 6105, 3,3-difluoro-2-methylbutan-2-yl((2R,6S,7R,9S,13aS,14aR,16aS,Z)-2-((3-isopropoxyisoquinolin-1-yl)oxy)-7,9-dimethyl-14a-(((1-methylcyclopropyl)sulfonyl)carbamoyl)-5,16-dioxo-1,2,3,5,6,7,8,9,10,11,13a,14,14a,15,16,16a-hexadecahydrocyclopropa[e]pyrrolo[1,2-a][1,4]diazacyclopentadecin-6-yl)carbamate] | 1.01 to 5 nM | 5.01 to 35 nM | – | – | –
